Legend:
Assay in all cases: relative viability (nuclei count vs DMSO), 5 days (fraction); higher = more cells survive
Alpelisib + Navitoclax = compound: Cc1nc(NC(=O)N2CCC[C@H]2C(N)=O)sc1-c1ccnc(C(C)(C)C(F)(F)F)c1 [Alpelisib] + CC1(C)CCC(c2ccc(Cl)cc2)=C(CN2CCN(c3ccc(C(=O)NS(=O)(=O)c4ccc(N[C@H](CCN5CCOCC5)CSc5ccccc5)c(S(=O)(=O)C(F)(F)F)c4)cc3)CC2)C1 [Navitoclax] (partner 0.5 µM)
Method in brief: (§1)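 Values are medians from duplicate plates. Each reflects relative viability, defined as the nuclei count of treated wells over that of vehicle wells. Lung cancer cell lines in 1536-well plates were pin-tool dosed one day after seeding with one drug alone or with a fixed anchor-drug dose plus five library-drug doses (not always all listed) in √10 steps, then fixed, stained and imaged at 4× after 5 days.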

OSI-027 + Olaparib = compound: COc1cccc2cc(-c3nc([C@H]4CC[C@H](C(=O)O)CC4)n4ncnc(N)c34)[nH]c12 [OSI-027] + O=C(c1cc(Cc2n[nH]c(=O)c3ccccc23)ccc1F)N1CCN(C(=O)C2CC2)CC1 [Olaparib] (partner 8 µM)
Method in brief: as §1

OSI-027 + Palbociclib = compound: COc1cccc2cc(-c3nc([C@H]4CC[C@H](C(=O)O)CC4)n4ncnc(N)c34)[nH]c12 [OSI-027] + CC(=O)c1c(C)c2cnc(Nc3ccc(N4CCNCC4)cn3)nc2n(C2CCCC2)c1=O [Palbociclib] (partner 0.5 µM)
Method in brief: as §1

Alpelisib + Pictilisib = compound: Cc1nc(NC(=O)N2CCC[C@H]2C(N)=O)sc1-c1ccnc(C(C)(C)C(F)(F)F)c1 [Alpelisib] + CS(=O)(=O)N1CCN(Cc2cc3nc(-c4cccc5[nH]ncc45)nc(N4CCOCC4)c3s2)CC1 [Pictilisib] (partner 1 µM)
Method in brief: as §1

Cell Line	relative viability (Alpelisib + Navitoclax; first compound 0.04 µM)	relative viability (Alpelisib + Navitoclax; first compound 0.1265 µM)	relative viability (Alpelisib + Navitoclax; first compound 0.4 µM)	relative viability (Alpelisib + Navitoclax; first compound 1.265 µM)	relative viability (Alpelisib + Navitoclax; first compound 4 µM)	relative viability (OSI-027 + Olaparib; first compound 0.01 µM)	relative viability (OSI-027 + Olaparib; first compound 0.03162 µM)	relative viability (OSI-027 + Olaparib; first compound 0.1 µM)	relative viability (OSI-027 + Olaparib; first compound 0.3162 µM)	relative viability (OSI-027 + Olaparib; first compound 1 µM)	relative viability (OSI-027 + Palbociclib; first compound 0.01 µM)	relative viability (OSI-027 + Palbociclib; first compound 0.03162 µM)	relative viability (OSI-027 + Palbociclib; first compound 0.1 µM)	relative viability (OSI-027 + Palbociclib; first compound 0.3162 µM)	relative viability (OSI-027 + Palbociclib; first compound 1 µM)	relative viability (Alpelisib + Pictilisib; first compound 0.04 µM)	relative viability (Alpelisib + Pictilisib; first compound 0.1265 µM)	relative viability (Alpelisib + Pictilisib; first compound 0.4 µM)	relative viability (Alpelisib + Pictilisib; first compound 1.265 µM)	relative viability (Alpelisib + Pictilisib; first compound 4 µM)
NCI-H2170	0.54	0.638	0.52	0.316	0.308	0.664	0.592	0.604	0.525	0.346	0.407	0.382	0.329	0.302	0.201	0.322	0.328	0.331	0.343	0.283
PC-3 [JPC-3]	0.828	0.836	0.848	0.73	0.762	1.13	1.14	1.23	1.08	0.628	0.535	0.522	0.563	0.5	0.439	0.76	0.715	0.737	0.767	0.676
NCI-H1651	0.956	1.11	1.04	0.773	0.791	0.199	0.173	0.178	0.189	0.186	0.534	0.502	0.497	0.459	0.393	0.606	0.596	0.638	0.547	0.644
NCI-H460	1.06	1.25	1.08	0.701	0.299	0.663	0.369	0.41	0.448	0.239	0.18	0.186	0.186	0.158	0.092	0.388	0.389	0.378	0.345	0.297
NCI-H2228	0.977	1	0.552	0.51	0.294	0.952	0.644	0.562	0.474	0.226	0.65	0.638	0.849	0.75	0.383	0.473	0.326	0.547	0.445	0.221
LOU-NH91	0.707	0.637	0.526	0.504	0.343	0.91	0.907	0.844	0.843	0.638	0.556	0.563	0.503	0.567	0.529	0.537	0.504	0.559	0.52	0.457
RERF-LC-KJ	0.768	0.931	0.935	0.626	0.741	0.829	0.866	0.82	0.798	0.496	1.07	0.957	0.99	0.817	0.457	0.557	0.583	0.559	0.268	0.46
EKVX	0.969	0.903	1.12	0.84	0.75	0.659	0.935	0.88	0.832	0.516	0.332	0.44	0.34	0.263	0.22	0.441	0.419	0.419	0.466	0.428

— the supplement of paper PMC10307832
